Key:
BRISC Abraxas2 Thr135Lys = BRISC Abraxas2 Thr135Lys (Homo sapiens, UniProt P46736+Q15018+Q9NXR7, T135K); experiment: IQF DUB assay, BRISC mutant Abraxas2 Thr135Lys; assay type: biochemical; details: FIG. 4B
Description: The four-subunit human BRISC (full-length (FL) and MERIT40ΔN, Abraxas2ΔC) complex was cloned using the MultiBac system and co-expressed in Spodoptera frugiperda (Sf9) insect cells^32. BRISC mutants were cloned into pFastBac vectors in the Bac-to-Bac system (ThermoFisher), baculoviruses generated in Sf9 cells and used for co-infection of Trichoplusia ni (Tni) cells. All BRISC complexes were purified as previously described^12,13.
BRISC complexes were tested for activity in DUB reaction buffer containing 50 mM HEPES-NaOH pH 7.0, 100 mM NaCl, 0.1 mg/mL BSA, 1 mM DTT, and 0.003% Brij-35. […] Inhibitors were assayed at concentrations up to 200 μM. […] DUB activity was measured using internally quenched fluorescent (IQF) K63-linked diUb (Lifesensors, catalogue number: DU6303) at 50 or 100 nM. Cleaved diUb was monitored by measuring fluorescence intensity (Ex. 540 nm, Em. 580 nm; dichroic mirror 560 nm). Fluorescence intensity was measured every minute for 30 minutes at 30° C. Fluorescence intensity units for the first 10 minutes were plotted against time to generate a linear reaction progress curve, where the initial velocity (v0) corresponds to the gradient of the curve. IC50 values were calculated using the GraphPad Prism (v8.0) built-in dose-response equation for inhibitor concentration vs. response (variable slope). […]

BRISC BRCC36 Ile158Lys = BRISC BRCC36 Ile158Lys (Homo sapiens, UniProt P46736+Q15018+Q9NXR7, I158K); experiment: Mass photometry, BRISC mutant BRCC36 Ile158Lys; assay type: binding; details: BRCC36 Ile158Lys (inactive mutant)
Description: Microscope coverslips were prepared as previously described^33. All mass photometry experiments were performed using a One^MP mass photometer (Refeyn Ltd, Oxford, UK). For preliminary BRISC-inhibitor measurements, 1 μM BRISC(FL) was mixed with either DMSO or inhibitor at 330 μM and incubated for 15 minutes on ice. Prior to MP measurement, the BRISC-inhibitor mix was diluted in gel filtration buffer (25 mM HEPES, 150 mM NaCl, 1 mM TCEP) for a final concentration of BRISC at 10 nM (0.05% DMSO). 12 μL of this dilution was used for the final MP measurement, following autofocus stabilisation. […] Movies were recorded for 60 seconds using AcquireMP (Refeyn, UK), and were processed using DiscoverMP (Refeyn, UK). […] The relative amount of each species is calculated as the area of each Gaussian, where a refers to the standard deviation of the fitted Gaussian. […] Curves were fitted and EC50 values were calculated using the GraphPad Prism (v8.0) built-in dose-response equation for concentration of agonist vs. response (variable slope).
The cryo-EM structures of BRISC bound to molecular glues allowed picking of selective mutations to probe the BRISC-compound interaction site and to assess the contribution of each interacting residue for inhibition and gluing activity. […] For the remaining active 13 mutants (FIGS. 11C, 11D) inhibitor IC50s were calculated against BRISC DUB activity. […]

For `O=C(NC1C2CNCC21)c1nn(C(=O)c2c(Cl)cccc2Cl)cc1NC(=O)c1c(Cl)cccc1Cl` (centres unmarked) [FX-171-C], the “inhibitor sensitivity of mutant” value (BRISC Abraxas2 Thr135Lys) was “no effect on inhibitor sensitivity” and the inhibitor-induced dimerisation (BRISC BRCC36 Ile158Lys) was “reduction in the inhibitor-induced dimerisation effect”.

— patent US20230317203A1, “SCREENING METHOD” (University of Leeds, priority 2022, published 2023)
